Common to all, as to type: cell-based
One experiment relates to C. guilliermondii T-47. The experiment is described as follows: MIC80 broth double-dilution assay. The settings on record: YPAD medium, 30° C., 24 h. The procedure:
(§1) The antifungal activities of the 24 azole-COX inhibitor hybrids were evaluated against a panel of 16 representative strains of different species of the genus Candida. Candida species cause both superficial and systemic infections. The panel included strains of C. albicans, C. glabrata, C. parapsilosis, C. tropicalis, C. guilliermondii, C. dubliniensis, and C. auris (Table S2). To evaluate antifungal activity, the minimal inhibitory concentration 80% (MIC80) values were determined, which were defined as the lowest drug concentrations with turbidity (measured at OD600) less than or equal to that of specific 1:5 dilutions of the growth control. As controls, FLC and VOR, were tested.
(§2) C. albicans, C. glabrata, C. parapsilosis, C. guilliermondii, C. tropicalis, and C. dubliniensis MICs were determined using CLSI M27-A3 guidelines with minor modifications. Starter cultures were streaked from glycerol stock onto YPAD agar plates and grown for 24 h at 30° C. Colonies were suspended in 1 mL PBS and diluted to 1×10^−3 OD600 and then diluted 1:100 into fresh medium. Hybrids dissolved in DMSO were added to YPAD broth (32 μL stock solution in 1218 μL of YPAD broth), and serial double dilutions of hybrids in YPAD were prepared in flat-bottomed 96-well microplates (Corning) to enable testing of concentrations ranging from 64 μg/mL to 0.003 μg/mL. Control wells with yeast cells but no drug and blank wells containing only YPAD were prepared. An equal volume (100 μL) of yeast suspensions in YPAD broth was added to each well with the exceptions of the blank wells. MIC values (Tables S4-S6) were determined after 24 h at 30° C. by measuring the OD600 using a plate reader (Infinite M200 PRO, Tecan). MIC values were defined as the point at which the OD600 was reduced by >80% compared to the no-drug wells. Each concentration was tested in triplicate, and results were confirmed by two independent sets of experiments. FLC and VOR were used as control drugs.

A further experiment concerns C. albicans SN152. Put plainly: MIC80 broth double-dilution assay. As to conditions: YPAD medium, 30° C., 24 h; parent strain of the erg11ΔΔ/erg3ΔΔ mutant. The procedure:
as §1
(§3) MIC80 values were determined using the broth microdilution method over a concentration range of 0.003-64 μg/mL. Orange circles represent C. albicans strains, yellow circles represent C. glabrata strains, and green circles represent C. parapsilosis, C. tropicalis, C. dubliniensis and C. auris. Cells were grown in YPAD medium at 30° C. (For C. auris strains 37° C.) 24 h. Each concentration was tested in triplicate, and results were confirmed in at least two independent experiments.
(§4) The clinically used FLC and VOR act primarily by preventing ergosterol biosynthesis via inhibition of CYP51. Analysis was done to determine whether fungal growth inhibition by the hybrids required the presence of the ERG11 gene that encodes for CYP51. The antifungal activities of hybrids 1 and 5 and of FLC and VOR were determined against an erg11ΔΔ/erg3ΔΔ mutant C. albicans strain and against C. albicans SN152 from which this double knockout strain was derived (Table S2). […] Yeast growth was followed at OD600 over 48 h in 96-well plates containing serial double dilutions of the tested hybrids.
as §2

For experiment [1], the system named is C. albicans 742 (erg11ΔΔ/erg3ΔΔ mutant C. albicans strain). Put plainly: MIC80 broth double-dilution assay, strain lacking CYP51. As to conditions: YPAD medium, 30° C., 24 h; erg11ΔΔ/erg3ΔΔ mutant lacking CYP51. The procedure:
as §1, §4, §2

The test system of the next experiment is C. albicans ATCC 24433. Put plainly: MIC80 broth double-dilution assay. The settings on record: YPAD medium, 30° C., 24 h. The procedure:
as §1, §3, §2

Another experiment concerns C. albicans P-87. Put plainly: MIC80 broth double-dilution assay. The settings on record: YPAD medium, 30° C., 24 h. The procedure: as §1, §3, §2
A further experiment concerns C. dubliniensis T-99. The experiment is described as follows: MIC80 broth double-dilution assay. The settings on record: YPAD medium, 30° C., 24 h. The procedure:
as §1, §3, §2

Experiment [2] concerns C. parapsilosis ATCC 22019. The experiment is described as follows: MIC80 broth double-dilution assay. The settings on record: YPAD medium, 30° C., 24 h. The procedure:
as §1, §3, §2

A further experiment relates to C. albicans ATCC 90028. Put plainly: MIC80 broth double-dilution assay. As to conditions: YPAD medium, 30° C., 24 h. The procedure: as §1, §3, §2
In another experiment the test system is C. tropicalis 660. The experiment is described as follows: MIC80 broth double-dilution assay. As to conditions: YPAD medium, 30° C., 24 h. The procedure: as §1, §3, §2
For the next experiment, the system named is C. albicans SC5314. Put plainly: MIC80 broth double-dilution assay. The settings on record: YPAD medium, 30° C., 24 h. The procedure:
as §1, §3, §2

Values after ≈ are worked out from the molar mass of the structure shown.

The values below come from patent US20250018048A1, “FLUCONAZOLE-COX INHIBITOR HYBRIDS: A DUAL-ACTING CLASS OF ANTIFUNGAL AZOLES” (Ramot at Tel-Aviv University Ltd., priority 2022, published 2025).

With `C[C@H](C(=O)NC[C@](O)(Cn1cncn1)c1ccc(F)cc1F)c1cccc(C(=O)c2ccccc2)c1` [Hybrid 13], in the experiment with C. guilliermondii T-47, the “MIC80 against C. guilliermondii T-47” value turned out to be 32 µg/mL (≈ 65.2 µM). In addition, the “MIC80 against C. albicans SN152” value in the experiment with C. albicans SN152 turned out to be 2 µg/mL (≈ 4.08 µM). For the same molecule, the “MIC80 against C. albicans 742” value in experiment [1] was over 64 µg/mL. Moreover, the “MIC80 against C. albicans 24433” value against C. albicans ATCC 24433 is 4 µg/mL (≈ 8.15 µM). The “MIC80 against C. albicans P-87” value with C. albicans P-87 came out at 4 µg/mL (≈ 8.15 µM). Also, the “MIC80 against C. dubliniensis T-99” value in the experiment on C. dubliniensis T-99 was found to be 64 µg/mL (≈ 130 µM). Moreover, the “MIC80 against C. parapsilosis 22019” value in experiment [2] turned out to be 8 µg/mL (≈ 16.3 µM). In addition, the “MIC80 against C. albicans 90028” value against C. albicans ATCC 90028 is 2 µg/mL (≈ 4.08 µM). The “MIC80 against C. tropicalis 660” value in the experiment on C. tropicalis 660 worked out at 16 µg/mL (≈ 32.6 µM). Moreover, in the experiment with C. albicans SC5314, the “MIC80 against C. albicans SC5314” value was found to be 2 µg/mL (≈ 4.08 µM).
Consider `O=C(Cc1ccccc1Nc1c(Cl)cccc1Cl)NC[C@@](O)(Cn1cncn1)c1ccc(F)cc1F` [Hybrid 24], for which, in the experiment with C. guilliermondii T-47, the “MIC80 against C. guilliermondii T-47” value is over 64 µg/mL. For the same molecule, in the experiment on C. albicans SN152, the “MIC80 against C. albicans SN152” value is over 64 µg/mL. Also, the “MIC80 against C. albicans 742” value in experiment [1] is over 64 µg/mL. The “MIC80 against C. albicans 24433” value against C. albicans ATCC 24433 was over 64 µg/mL. For the same molecule, the “MIC80 against C. albicans P-87” value against C. albicans P-87 is over 64 µg/mL. The “MIC80 against C. dubliniensis T-99” value in the experiment with C. dubliniensis T-99 came out at 2 µg/mL (≈ 3.76 µM). Also, in experiment [2], the “MIC80 against C. parapsilosis 22019” value is over 64 µg/mL. Moreover, the “MIC80 against C. albicans 90028” value against C. albicans ATCC 90028 is over 64 µg/mL. In the experiment on C. tropicalis 660, the “MIC80 against C. tropicalis 660” value was over 64 µg/mL. Moreover, the “MIC80 against C. albicans SC5314” value against C. albicans SC5314 was over 64 µg/mL.
As to `O=C(NC[C@@](O)(Cn1cncn1)c1ccc(F)cc1F)c1cc(-c2ccc(F)cc2F)ccc1O` [Hybrid 20], the “MIC80 against C. guilliermondii T-47” value in the experiment with C. guilliermondii T-47 was over 64 µg/mL. The “MIC80 against C. albicans SN152” value in the experiment on C. albicans SN152 came to 8 µg/mL (≈ 16.4 µM). The “MIC80 against C. albicans 742” value in experiment [1] was 32 µg/mL (≈ 65.8 µM). For the same molecule, the “MIC80 against C. albicans 24433” value in the experiment with C. albicans ATCC 24433 worked out at 16 µg/mL (≈ 32.9 µM). In addition, the “MIC80 against C. albicans P-87” value in the experiment on C. albicans P-87 was 8 µg/mL (≈ 16.4 µM). The “MIC80 against C. dubliniensis T-99” value with C. dubliniensis T-99 was determined as 0.5 µg/mL (≈ 1.03 µM). Besides, the “MIC80 against C. parapsilosis 22019” value in experiment [2] came out at 8 µg/mL (≈ 16.4 µM). Moreover, in the experiment with C. albicans ATCC 90028, the “MIC80 against C. albicans 90028” value was 16 µg/mL (≈ 32.9 µM). Besides, the “MIC80 against C. tropicalis 660” value in the experiment with C. tropicalis 660 was over 64 µg/mL. Further, the “MIC80 against C. albicans SC5314” value with C. albicans SC5314 turned out to be 8 µg/mL (≈ 16.4 µM).
Consider `COc1ccc2cc([C@H](C)C(=O)NC[C@@](O)(Cn3cncn3)c3ccc(F)cc3F)ccc2c1` [Hybrid 12], for which, in the experiment on C. guilliermondii T-47, the “MIC80 against C. guilliermondii T-47” value was determined as 32 µg/mL (≈ 68.6 µM). Besides, in the experiment with C. albicans SN152, the “MIC80 against C. albicans SN152” value worked out at 2 µg/mL (≈ 4.29 µM). Besides, the “MIC80 against C. albicans 742” value in experiment [1] is over 64 µg/mL. Also, the “MIC80 against C. albicans 24433” value in the experiment on C. albicans ATCC 24433 was determined as 4 µg/mL (≈ 8.57 µM). In the experiment with C. albicans P-87, the “MIC80 against C. albicans P-87” value came to 4 µg/mL (≈ 8.57 µM). Further, the “MIC80 against C. dubliniensis T-99” value against C. dubliniensis T-99 amounted to 32 µg/mL (≈ 68.6 µM). For the same molecule, the “MIC80 against C. parapsilosis 22019” value in experiment [2] is 4 µg/mL (≈ 8.57 µM). For the same molecule, the “MIC80 against C. albicans 90028” value against C. albicans ATCC 90028 is 4 µg/mL (≈ 8.57 µM). In addition, the “MIC80 against C. tropicalis 660” value in the experiment on C. tropicalis 660 is over 64 µg/mL. Also, in the experiment with C. albicans SC5314, the “MIC80 against C. albicans SC5314” value was found to be 2 µg/mL (≈ 4.29 µM).
Regarding `O=C(NC[C@@](O)(Cn1cncn1)c1ccc(F)cc1F)c1ccccc1O` [Hybrid 22], in the experiment on C. guilliermondii T-47, the “MIC80 against C. guilliermondii T-47” value was 16 µg/mL (≈ 42.7 µM). Further, in the experiment on C. albicans SN152, the “MIC80 against C. albicans SN152” value turned out to be 8 µg/mL (≈ 21.4 µM). The “MIC80 against C. albicans 742” value in [1] was over 64 µg/mL. For the same molecule, the “MIC80 against C. albicans 24433” value in the experiment with C. albicans ATCC 24433 worked out at 16 µg/mL (≈ 42.7 µM). Moreover, in the experiment on C. albicans P-87, the “MIC80 against C. albicans P-87” value came to 16 µg/mL (≈ 42.7 µM). For the same molecule, the “MIC80 against C. dubliniensis T-99” value in the experiment with C. dubliniensis T-99 is over 64 µg/mL. Also, the “MIC80 against C. parapsilosis 22019” value in experiment [2] is 8 µg/mL (≈ 21.4 µM). Also, in the experiment on C. albicans ATCC 90028, the “MIC80 against C. albicans 90028” value turned out to be 8 µg/mL (≈ 21.4 µM). Also, in the experiment with C. tropicalis 660, the “MIC80 against C. tropicalis 660” value amounted to 32 µg/mL (≈ 85.5 µM). In the experiment on C. albicans SC5314, the “MIC80 against C. albicans SC5314” value is 8 µg/mL (≈ 21.4 µM).
Turning to `C[C@@H](C(=O)NC[C@](O)(Cn1cncn1)c1ccc(F)cc1F)c1cccc(C(=O)c2ccccc2)c1` [Hybrid 14], in the experiment with C. guilliermondii T-47, the “MIC80 against C. guilliermondii T-47” value amounted to 16 µg/mL (≈ 32.6 µM). In addition, the “MIC80 against C. albicans SN152” value in the experiment with C. albicans SN152 was found to be 0.5 µg/mL (≈ 1.02 µM). Moreover, the “MIC80 against C. albicans 742” value in experiment [1] was over 64 µg/mL. Also, in the experiment on C. albicans ATCC 24433, the “MIC80 against C. albicans 24433” value was determined as 1 µg/mL (≈ 2.04 µM). For the same molecule, the “MIC80 against C. albicans P-87” value in the experiment with C. albicans P-87 came out at 1 µg/mL (≈ 2.04 µM). Moreover, the “MIC80 against C. dubliniensis T-99” value with C. dubliniensis T-99 worked out at 4 µg/mL (≈ 8.15 µM). For the same molecule, in experiment [2], the “MIC80 against C. parapsilosis 22019” value worked out at 8 µg/mL (≈ 16.3 µM). The “MIC80 against C. albicans 90028” value in the experiment with C. albicans ATCC 90028 worked out at 1 µg/mL (≈ 2.04 µM). For the same molecule, in the experiment with C. tropicalis 660, the “MIC80 against C. tropicalis 660” value is 16 µg/mL (≈ 32.6 µM). In addition, in the experiment with C. albicans SC5314, the “MIC80 against C. albicans SC5314” value was 1 µg/mL (≈ 2.04 µM).
